In patent US20260028319A1, “INTERMEDIATE SALT FOR THE PREPARATION OF BIS(FLUOROALKYL) BENZODIAZEPINONE COMPOUNDS” (Immunome, Inc., priority 2022, published 2026):

Key:
Type in all cases: physicochemical
[1] = (I-1) and (1) stability study, assay by HPLC; settings: for Stability, in words: free acid versus CHA salt; for Assay (by HPLC), Initial Results: before storage
Method: (§1) Assay and water content of the oily free acid (I-1) were tested following a 6-month period in 25° C./60% RH (relative humidity) and 40° C./75% RH (Table 2a).
Similarly, the corresponding CHA salt (1), which is a powder, was tested for its purity/assay:
It could be stipulated that increased water amount over time in the free acid gives rise to the observed assay which deteriorates as the test progresses.

[2] = (I-1) and (1) stability study, water content by KF; settings: for Water content (by KF) following storage: 6 months; for Water content (by KF), Initial Results: before storage
Method: as §1

[3] = Stability of Na, CHA and tBuNH2 salts of (I-1), GC/MS assay
Method: Na and tBuNH2 salts of (I-1) were prepared. Stability of the salts was tested and compared to the stability of the CHA salt ((1)).
Table 3 also emphasizes that specific salts of (I-1) provide high purity over time. However, it cannot be said that any possible salt (any possible cation) of (I-1) will give rise to such high stability over time.

SMILES | Assay by HPLC ([1]; 1 month, 2-8° C.) [% w/w] | Assay by HPLC ([1]; 1 month, 25° C./60% RH) [% w/w] | Assay by HPLC ([1]; 1 month, 40° C./75% RH) [% w/w] | Assay by HPLC ([1]; 3 months, 2-8° C.) [% w/w] | Assay by HPLC ([1]; 3 months, 25° C./60% RH) [% w/w] | Assay by HPLC ([1]; 3 months, 40° C./75% RH) [% w/w] | Assay by HPLC ([1]; 6 months, 2-8° C.) [% w/w] | Assay (by HPLC) following storage ([1]; 6 months, 25° C./60% RH) [% w/w] | Assay (by HPLC) following storage ([1]; 6 months, 40° C./75% RH) [% w/w] | Stability, in words [1] | Assay (by HPLC), Initial Results [1] [% w/w] | Water content (by KF) following storage ([2]; 25° C./60% RH) [%] | Water content (by KF) following storage ([2]; 40° C./75% RH) [%] | Water content (by KF), Initial Results [2] [%] | Purity (GC/MS assay) At 2-8° C. for 1 week ([3]; 2-8° C., 1 week) [% w/w] | Purity (GC/MS assay) At 45° C. for 1 week ([3]; 45° C., 1 week) [% w/w] | Stability among salts of (I-1), in words ([3]; Na, CHA and tBuNH2 salts compared) | Stability, in words ([1]; listed as free acid compound)
CC(C)(C)OC(=O)C[C@@H](CCC(F)(F)F)C(=O)O [(1)] | 96.2 | 94.8 | 94.3 | 95.1 | 94.5 | 93.0 | 94.6 | 95.1 | 94.4 | much more stable | 95.0 | 0.3 | 0.3 | 0.2 | 95.8 | 98.2 | most stable salt | –
CC(C)(C)OC(=O)C[C@@H](CCC(F)(F)F)C(=O)O [(I-1), (2R)-2-(2-tert-Butoxy-2-oxoethyl)-5,5,5-trifluoropentanoic acid, reference compound] | – | – | – | – | – | – | – | 92.8 | 84.5 | – | 93.5 | 2.0 | 2.3 | 0.8 | – | – | – | unstable
